The test system of data set [1] is macrophage-lipid complex on the arterial endothelium. The experiment in a line: Fatty streak analysis: macrophage-lipid complex on main artery of cholesterol-fed rabbits (Example 6). Type of data set: in vivo, New Zealand White rabbit. To be noted: 1 mg/kg Lovastatin. The text has this: RC4 diet comprises 7.6% moisture, 22.8% crude protein, 2.8% crude fat, 8.8% crude ash, 14.4% crude cellulose and 43.6% soluble nitrogen-free substances. The rabbits were bred for 6 weeks while being allowed free access to the diets and water. The rabbits bred in (Step 1) were sacrificed and their chest were incised. The main artery was cut out therefrom in a length of about 5 cm downward from the site 1 cm above the aortic valve and the fat surrounding the main artery was removed. The main artery was incised in the middle along the longitudinal axis and pinned to a dish. The moist artery was photographed and, then, staining of fatty streak was carried out in accordance with the method of […]., et al. (J. Lab. Clin. […] A part of the incised main artery was washed three times by 2 min. with anhydrous propylene glycol and stained for 30 min. with a saturated solution of Oil Red O (ORO, Sigma Co.) dissolved in propylene glycol. Thereafter, the artery was washed twice by 3 min. with 85% propylene glycol to remove remaining staining solution and, then washed with physical saline. The artery was photographed and the photograph was traced. The area of stained region (fatty streak region) was determined with an image analyzer (LEICA, Q-600, Germany) and its proportion (%) to the total arterial area was calculated. On the other hand, the other part of the main artery was stained in accordance with hematoxylin-eosin (H&E) and Masson's trichrome staining methods and observed under a microscope to confirm whether the macrophage-lipid complexes were accumulated in the intima, internus, elastic lamina and media.

Data set [2] can be described thus: Blood total cholesterol and triglyceride in cholesterol-fed rabbits (Example 6). In kind it is in vivo, New Zealand White rabbit. To be noted: 1% cholesterol diet, 6 weeks, 1 mg/kg Lovastatin, 0.1% naringin or naringenin. Here is the method:
Blood samples were taken from the rats of the three dietary groups and plasma HDL fractions were separated therefrom by using HDL-cholesterol reagent (Sigma Chemical Co., Cat. No. 352-3) containing dextran-sulfate. Total cholesterol and HDL-cholesterol levels were determined by using Sigma Diagnostic Kit Cat. No. 352-100(Sigma Chemical Co., […] et al., Clin. Chem., 20, 470-475(1974)). Neutral lipid level was determined by using Sigma Diagnostic Kit Cat. No. 339-50(Bucolo, G. and David, H., Clin. Chem., 19, 476-482(1973)). The result is shown in Table III, wherein the total plasma cholesterol levels in naringin and naringenin-fed rat groups decreased by 32% and 18%, respectively, as compared with that of the control group. […] RC4 diet comprises 7.6% moisture, 22.8% crude protein, 2.8% crude fat, 8.8% crude ash, 14.4% crude cellulose and 43.6% soluble nitrogen-free substances. The rabbits were bred for 6 weeks while being allowed free access to the diets and water. Further, blood samples were taken from the rabbits and total cholesterol and triglyceride levels were determined in accordance with the same procedure in Example 4.

The subject of data set [3] is hepatic cells. To be noted: rabbits, 1% cholesterol diet, six weeks; 1 mg/kg Lovastatin, 0.1% naringin. Here is the method: The same procedure as in (Step 1) was repeated except that 30 three-month old New Zealand White rabbits (Yeonam Horticulture and Animal Husbandry College, Korea) each weighing about 2.5 to 2.6 kg were used in place of the rats, and the rabbits were fed for six weeks with three different diets, i.e., RC4 diet containing 1% cholesterol (Control group); 1% cholesterol plus 1 mg/kg Lovastatin® (Comparative group); and 1% cholesterol plus 0.1% naringin, respectively.
Thereafter, the livers were separated from the rabbits and the histopathological observations were carried out as follows.
The rabbits were anesthetized with an intramuscular injection of ketamine (75 mg/kg) and subjected to an abdominal incision. […] The fixed liver was washed sufficiently with water, dehydrated stepwise with 70%, 80%, 90% and 100% ethanol and, then, embedded in paraffin. The embedded liver was sectioned in 4 μm thickness with a microtome and stained with hematoxylin and eosin. The stained liver specimen was made transparent with xylene, mounted with permount, and then observed under a microscope to confirm the presence of lesions.

The subject of data set [4] is creatin kinase in the liver. To be noted: in vivo; cited from earlier work.

Consider `CC[C@H](C)C(=O)O[C@H]1C[C@@H](C)C=C2C=C[C@H](C)[C@H](CC[C@@H]3C[C@@H](O)CC(=O)O3)[C@H]21` [Lovastatin, reference compound], for which the “layer of macrophage-lipid complex on the arterial endothelium (FIGS. 1A-1C)” value in data set [1] (0.1% naringin, control: thick layer) was “no or very thin layers of macrophage-lipid complex”. In addition, in data set [1] (1% cholesterol diet, 6 weeks, 0.1% naringin or naringenin), the “area of macrophage-lipid complex accumulated on the arterial endothelium, compared to control group” value is given as “decreased significantly”. Moreover, the “M-L (macrophage-lipid) complex area” value in data set [1] (proportion of total arterial area, 1% cholesterol diet, 6 weeks, 0.1% naringin or naringenin, control 35) was 5%. In data set [2] (control 56), this molecule showed a Triglyceride of 66 mg/dL. Also, the Total cholesterol in data set [2] (control 1143) stood at 1210 mg/dL. Moreover, the “microscopic features of the liver (FIGS. 2A-2C)” value in data set [3] is “irregularly arranged and enlarged and a large amount of fat is deposited therein”. Moreover, in data set [4], the adverse side effect entry is listed as “increasing creatin kinase in the liver”.

The values above are taken from patent publication US6165984A, “Naringin and naringenin as inhibitors of acyl CoA-cholesterol-o-acyltransferase” (Korea Institute of Science & Technology, priority 1997, dated 2000).
